Several values for one entry are separate records, joined by “and”; a condition that tells them apart may be missing. Identical values can stand only once. Like-named read-outs stand apart in the source and are kept apart here.
Assays:
[1] = test system: primary human T cells; experiment: IL12 (p70) in lentivirus transduced primary human T cells, Bazedoxifene dose response (MSD assay); assay type: cell-based
Method: Primary human T cells were expanded with CD3/CD28 Dynabeads, transduced with lentivirus constructs and expanded for 10 days. Beads were removed and cells were frozen. T cells were later thawed and 100,000 cells were treated overnight with different doses of Bazedoxifene (BZD). Transduction efficiency was assessed by flow cytometry using CD19-Fc staining. The response of IL12 in CD19 CAR-IL12 tandem constructs to increasing concentrations of ligand was measured using OT-001736 construct with increasing doses of BZD starting at 0.01 nM to up to 3 μM for 23 hours. IL12 levels were measured using MSD assay. Controls tested in the experiment included OT-001357, which constitutively expresses IL12 and OT-001407, which is not expected to show any IL12 expression.
Additional ER mutants were tested in primary human T cells as described above, except T cells were treated on day 9 of expansion, and not frozen and thawed prior to the experiment (Table 15).

[2] = Pharmacokinetics of Bazedoxifene in CD-1 mice (plasma, LC-MS-MS); assay type: in vivo; parameters: Plasma Bazedoxifene Concentrations: unit not given here
[3] = 3 mg intravenous (IV); cited from earlier work

With Cc1c(-c2ccc(O)cc2)n(Cc2ccc(OCCN3CCCCCC3)cc2)c2ccc(O)cc12 [Bazedoxifene] the EC50 ([1]; T-cell, BZD dose response in primary human T cells expressing OT-001736, read-out: EC50 of IL12 induction) was 0.2 µM, the “lowest BZD concentration that induced IL12 expression” value ([1]; primary human T cells expressing OT-001736) was 0.05 µM and the “Plasma Bazedoxifene Concentrations” value ([2]; 10 mg/kg single dose, 0.25 hours post dose, free and bound combined, individual animals) was 0.062 and 0.127 and 0.287. The “Plasma Bazedoxifene Concentrations” value ([2]; 10 mg/kg single dose, 0.5 hours post dose, free and bound combined, individual animals) was 0.050 and 0.091, the “Plasma Bazedoxifene Concentrations” value ([2]; 10 mg/kg single dose, 1 hours post dose, free and bound combined, individual animals) was 0.089 and 0.105 and the “Plasma Bazedoxifene Concentrations” value ([2]; 10 mg/kg single dose, 2 hours post dose, free and bound combined, individual animals) was 0.096 and 0.107. For the same molecule, the “Plasma Bazedoxifene Concentrations” value ([2]; 10 mg/kg single dose, 4 hours post dose, free and bound combined, individual animals) was 0.053 and 0.055, the “Plasma Bazedoxifene Concentrations” value ([2]; 10 mg/kg single dose, 7 hours post dose, free and bound combined, individual animals) was 0.036 and 0.035 and the “Plasma Bazedoxifene Concentrations” value ([2]; 10 mg/kg single dose, 10 hours post dose, free and bound combined, individual animals) was 0.033 and 0.028 and 0.016. For the same molecule, the “Plasma Bazedoxifene Concentrations” value ([2]; 10 mg/kg single dose, 24 hours post dose, free and bound combined, individual animals) was 0.005 and 0.003 and 0.004, the “Plasma Bazedoxifene Concentrations” value ([2]; 100 mg/kg single dose, 0.25 hours post dose, free and bound combined, individual animals) was 1.268 and 0.949 and 2.590 and the “Plasma Bazedoxifene Concentrations” value ([2]; 100 mg/kg single dose, 0.5 hours post dose, free and bound combined, individual animals) was 2.113 and 2.208 and 4.544. For the same molecule, the “Plasma Bazedoxifene Concentrations” value ([2]; 100 mg/kg single dose, 1 hours post dose, free and bound combined, individual animals) was 2.590 and 5.138, the “Plasma Bazedoxifene Concentrations” value ([2]; 100 mg/kg single dose, 2 hours post dose, free and bound combined, individual animals) was 2.272 and 4.161 and the “Plasma Bazedoxifene Concentrations” value ([2]; 100 mg/kg single dose, 4 hours post dose, free and bound combined, individual animals) was 1.208 and 1.902. The “Plasma Bazedoxifene Concentrations” value ([2]; 100 mg/kg single dose, 7 hours post dose, free and bound combined, individual animals) was 0.894 and 0.463 and 0.970, the “Plasma Bazedoxifene Concentrations” value ([2]; 100 mg/kg single dose, 10 hours post dose, free and bound combined, individual animals) was 0.754 and 0.497 and 0.713 and the “Plasma Bazedoxifene Concentrations” value ([2]; 100 mg/kg single dose, 24 hours post dose, free and bound combined, individual animals) was 0.023 and 0.179 and 0.025. The “Plasma Bazedoxifene Concentrations” value ([2]; 200 mg/kg single dose, 0.25 hours post dose, free and bound combined, individual animals) was 1.495 and 1.013, the “Plasma Bazedoxifene Concentrations” value ([2]; 200 mg/kg single dose, 0.5 hours post dose, free and bound combined, individual animals) was 2.314 and 1.707 and the “Plasma Bazedoxifene Concentrations” value ([2]; 200 mg/kg single dose, 1 hours post dose, free and bound combined, individual animals) was 3.397 and 4.013. For the same molecule, the “Plasma Bazedoxifene Concentrations” value ([2]; 200 mg/kg single dose, 2 hours post dose, free and bound combined, individual animals) was 2.590 and 3.567, the “Plasma Bazedoxifene Concentrations” value ([2]; 200 mg/kg single dose, 4 hours post dose, free and bound combined, individual animals) was 1.327 and 2.357 and the “Plasma Bazedoxifene Concentrations” value ([2]; 200 mg/kg single dose, 7 hours post dose, free and bound combined, individual animals) was 0.866 and 0.726 and 1.189. The “Plasma Bazedoxifene Concentrations” value ([2]; 200 mg/kg single dose, 10 hours post dose, free and bound combined, individual animals) was 0.699 and 0.732 and 0.715, the “Plasma Bazedoxifene Concentrations” value ([2]; 200 mg/kg single dose, 24 hours post dose, free and bound combined, individual animals) was 0.297 and 0.314 and 0.180 and the concentration at 0.5 h ([2]; CD-1, mouse, plasma, oral, 10 mg/kg, 10 mg/kg single dose, 0.5 hours post dose, free and bound combined, individual animals, read-out: Plasma Bazedoxifene Concentrations) was 71 nM. The concentration at 1 h ([2]; CD-1, mouse, plasma, oral, 10 mg/kg, 10 mg/kg single dose, 1 hours post dose, free and bound combined, individual animals, read-out: Plasma Bazedoxifene Concentrations) was 97 nM, the concentration at 2 h ([2]; CD-1, mouse, plasma, oral, 10 mg/kg, 10 mg/kg single dose, 2 hours post dose, free and bound combined, individual animals, read-out: Plasma Bazedoxifene Concentrations) was 77 nM and the concentration at 4 h ([2]; CD-1, mouse, plasma, oral, 10 mg/kg, 10 mg/kg single dose, 4 hours post dose, free and bound combined, individual animals, read-out: Plasma Bazedoxifene Concentrations) was 49 nM. It also gave a concentration at 7 h ([2]; CD-1, mouse, plasma, oral, 10 mg/kg, 10 mg/kg single dose, 7 hours post dose, free and bound combined, individual animals, read-out: Plasma Bazedoxifene Concentrations) of 34 nM, a concentration at 1 h ([2]; CD-1, mouse, plasma, oral, 100 mg/kg, 100 mg/kg single dose, 1 hours post dose, free and bound combined, individual animals, read-out: Plasma Bazedoxifene Concentrations) of 3590 nM and a concentration at 2 h ([2]; CD-1, mouse, plasma, oral, 100 mg/kg, 100 mg/kg single dose, 2 hours post dose, free and bound combined, individual animals, read-out: Plasma Bazedoxifene Concentrations) of 2820 nM. For the same molecule, the concentration at 4 h ([2]; CD-1, mouse, plasma, oral, 100 mg/kg, 100 mg/kg single dose, 4 hours post dose, free and bound combined, individual animals, read-out: Plasma Bazedoxifene Concentrations) was 1380 nM, the concentration at 0.25 h ([2]; CD-1, mouse, plasma, oral, 200 mg/kg, 200 mg/kg single dose, 0.25 hours post dose, free and bound combined, individual animals, read-out: Plasma Bazedoxifene Concentrations) was 1060 nM and the concentration at 0.5 h ([2]; CD-1, mouse, plasma, oral, 200 mg/kg, 200 mg/kg single dose, 0.5 hours post dose, free and bound combined, individual animals, read-out: Plasma Bazedoxifene Concentrations) was 1510 nM. For the same molecule, the concentration at 1 h ([2]; CD-1, mouse, plasma, oral, 200 mg/kg, 200 mg/kg single dose, 1 hours post dose, free and bound combined, individual animals, read-out: Plasma Bazedoxifene Concentrations) was 2400 nM, the concentration at 2 h ([2]; CD-1, mouse, plasma, oral, 200 mg/kg, 200 mg/kg single dose, 2 hours post dose, free and bound combined, individual animals, read-out: Plasma Bazedoxifene Concentrations) was 3270 nM and the concentration at 4 h ([2]; CD-1, mouse, plasma, oral, 200 mg/kg, 200 mg/kg single dose, 4 hours post dose, free and bound combined, individual animals, read-out: Plasma Bazedoxifene Concentrations) was 1580 nM. The Cmax ([2]; CD-1, mouse, plasma, dose of 200 mg/kg per os (PO), read-out: Murine Cmax) was ~3000 nM and the Cmax [3] was ~100 nM.
